{"source": "patent US20070104799A1", "about": "“Treatment of chronic kidney disease (CKD) subjects using lanthanum compounds” (SHIRE INT[…] B.V., priority 2005, published 2007)", "tested_on": "Crl:CD (SD) Br (VAFplus) female rats with spontaneous renal pathology, including mineralization", "settings": "104 weeks; for rats with evidence of pelvic/papillary mineralization / rats with evidence of transitional cell hyperplasia in kidneys: n=60; for rats with evidence of pelvic/papillary mineralization: undosed rats approx. 50% (n=120); for rats with evidence of transitional cell hyperplasia in kidneys: undosed rats approx. 63% (n=120)", "method": "Crl:CD (SD) Br (VAFplus) female rats (available from Charles River Laboratories in Wilmington, Mass.) were orally dosed once daily with 0, 100, 500, or 1500 mg (salt)/kg of lanthanum carbonate for 104 weeks. Crl:CD (SD) Br (VAFplus) female rats develop spontaneous renal pathology, including mineralization, as they age. At week 105, the pathological examination of the kidneys of these rats was performed.\nTransitional cell hyperplasia is a response to trauma caused by the unnatural presence of mineral in the tissue, thus mineralization and hyperplasia are closely linked.", "note": "Like-named read-outs stand apart in the source and are kept apart here.", "data": [{"smiles": "O=C([O-])[O-].O=C([O-])[O-].O=C([O-])[O-].[La+3].[La+3]", "note": "[lanthanum carbonate]", "values": [{"measurement": "rats with evidence of pelvic/papillary mineralization", "setting": "100 mg (salt)/kg/day oral", "result": "~35", "unit": "%"}, {"measurement": "rats with evidence of transitional cell hyperplasia in kidneys", "setting": "100 mg (salt)/kg/day oral", "result": "~48", "unit": "%"}, {"measurement": "rats with evidence of pelvic/papillary mineralization", "setting": "500 mg (salt)/kg/day oral", "result": "~5", "unit": "%"}, {"measurement": "rats with evidence of transitional cell hyperplasia in kidneys", "setting": "500 mg (salt)/kg/day oral", "result": "~23", "unit": "%"}, {"measurement": "rats with evidence of pelvic/papillary mineralization", "setting": "1500 mg (salt)/kg/day oral", "result": "~1.7", "unit": "%"}, {"measurement": "rats with evidence of transitional cell hyperplasia in kidneys", "setting": "1500 mg (salt)/kg/day oral", "result": "~7", "unit": "%"}, {"measurement": "effect on renal calcification (study conclusion)", "setting": "oral administration, 100-1500 mg (salt)/kg/day", "result": "reduces renal calcification"}]}]}
